One assay concerns the target T1, HDAC1 (Homo sapiens, UniProt Q13547).
T1 construct: made in house; host or cells: Sf9 insect cells (baculovirus, pVL1392)
The assay is described as follows: in vitro HDAC assay, release of 3H-acetate from labeled histones by immunoprecipitated FLAG-tagged HDAC1. The format is biochemical. The note with it: 300 nM TSA, 10 minutes prior to addition of labeled histones. Here is the method: (§1) C. In Vitro Histone Deacetylase Activity of Class II HDACs.
(§2) FLAG-tagged HDAC1 and HDAC6 were expressed in TAg Jurkat cells and purified by immunoprecipitation using the anti-FLAG antibody. […] The proteins were used in in vitro HDAC assays with the compounds identified in the screen, using concentration of approximately 50 μM.
(§3) E. Histone isolation and substrate specificity determination. […] F. HDAC6 Mutagenesis. […] G. Cell culture and transfections. […] Cells were harvested 48 hours post-transfection. H. DNA Constructs

Assay [1] addresses HDAC4 (Homo sapiens, UniProt P56524). The note with it: 300 nM TSA, 10 minutes prior to addition of labeled histones. From the text: (§4) The NCBI database was screened with the yeast Hda1p amino acid sequence to identify human homologs. The complete ORFs of HDAC 4 (SEQ ID NO:2), 5 (SEQ ID NO:4), and 6 (SEQ ID NO:6) were constructed as described in Methods. […] The two catalytic regions in HDAC6 (SEQ ID NO:6) are highly homologous to each other (47% identity, 64% similarity) and therefore the protein may have arisen evolutionarily from an in frame gene duplication event. […] C. In Vitro Histone Deacetylase Activity of Class II HDACs.

The target in assay [2] is HDAC5 (Homo sapiens, UniProt Q9UQL6). The note with it: 300 nM TSA, 10 minutes prior to addition of labeled histones.
Chain of HDAC5 (Homo sapiens, UniProt Q9UQL6) (Q9UQL6 whole entry D593E): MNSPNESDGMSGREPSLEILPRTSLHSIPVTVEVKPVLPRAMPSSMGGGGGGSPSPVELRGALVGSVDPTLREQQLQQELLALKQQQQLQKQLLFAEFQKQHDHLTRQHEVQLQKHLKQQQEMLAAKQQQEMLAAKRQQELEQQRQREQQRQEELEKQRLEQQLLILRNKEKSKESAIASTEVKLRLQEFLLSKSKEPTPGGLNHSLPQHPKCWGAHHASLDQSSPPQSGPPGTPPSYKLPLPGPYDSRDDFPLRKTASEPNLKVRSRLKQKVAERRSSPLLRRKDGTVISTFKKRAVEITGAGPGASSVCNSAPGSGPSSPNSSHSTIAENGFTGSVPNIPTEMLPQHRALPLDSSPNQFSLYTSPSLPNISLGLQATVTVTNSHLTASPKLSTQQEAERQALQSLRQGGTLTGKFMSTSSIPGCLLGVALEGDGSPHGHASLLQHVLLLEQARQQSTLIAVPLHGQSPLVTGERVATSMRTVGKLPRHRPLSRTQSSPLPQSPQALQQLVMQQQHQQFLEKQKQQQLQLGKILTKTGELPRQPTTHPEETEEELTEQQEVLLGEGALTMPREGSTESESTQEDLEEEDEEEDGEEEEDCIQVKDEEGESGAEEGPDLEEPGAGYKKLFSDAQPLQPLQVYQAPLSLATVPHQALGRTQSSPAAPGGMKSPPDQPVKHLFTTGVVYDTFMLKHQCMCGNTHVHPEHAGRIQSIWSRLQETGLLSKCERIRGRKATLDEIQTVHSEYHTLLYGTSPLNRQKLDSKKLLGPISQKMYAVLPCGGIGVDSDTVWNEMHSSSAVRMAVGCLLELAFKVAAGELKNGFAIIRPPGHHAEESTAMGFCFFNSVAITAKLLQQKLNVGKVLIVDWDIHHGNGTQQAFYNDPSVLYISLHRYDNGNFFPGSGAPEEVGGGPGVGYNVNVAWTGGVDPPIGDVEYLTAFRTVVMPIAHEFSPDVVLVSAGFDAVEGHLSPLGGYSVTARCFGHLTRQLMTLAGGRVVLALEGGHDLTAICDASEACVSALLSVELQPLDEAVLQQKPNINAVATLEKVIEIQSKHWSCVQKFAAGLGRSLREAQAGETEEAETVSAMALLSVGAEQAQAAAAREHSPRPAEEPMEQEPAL
From the text: as §4

The target in the next assay is T2, HDAC6 (Homo sapiens, UniProt Q9UBN7).
T2 construct: made in house; host or cells: Sf9 insect cells (baculovirus, pVL1392, Baculogold)
T2 sequence (Q9UBN7 1-1215 T994I): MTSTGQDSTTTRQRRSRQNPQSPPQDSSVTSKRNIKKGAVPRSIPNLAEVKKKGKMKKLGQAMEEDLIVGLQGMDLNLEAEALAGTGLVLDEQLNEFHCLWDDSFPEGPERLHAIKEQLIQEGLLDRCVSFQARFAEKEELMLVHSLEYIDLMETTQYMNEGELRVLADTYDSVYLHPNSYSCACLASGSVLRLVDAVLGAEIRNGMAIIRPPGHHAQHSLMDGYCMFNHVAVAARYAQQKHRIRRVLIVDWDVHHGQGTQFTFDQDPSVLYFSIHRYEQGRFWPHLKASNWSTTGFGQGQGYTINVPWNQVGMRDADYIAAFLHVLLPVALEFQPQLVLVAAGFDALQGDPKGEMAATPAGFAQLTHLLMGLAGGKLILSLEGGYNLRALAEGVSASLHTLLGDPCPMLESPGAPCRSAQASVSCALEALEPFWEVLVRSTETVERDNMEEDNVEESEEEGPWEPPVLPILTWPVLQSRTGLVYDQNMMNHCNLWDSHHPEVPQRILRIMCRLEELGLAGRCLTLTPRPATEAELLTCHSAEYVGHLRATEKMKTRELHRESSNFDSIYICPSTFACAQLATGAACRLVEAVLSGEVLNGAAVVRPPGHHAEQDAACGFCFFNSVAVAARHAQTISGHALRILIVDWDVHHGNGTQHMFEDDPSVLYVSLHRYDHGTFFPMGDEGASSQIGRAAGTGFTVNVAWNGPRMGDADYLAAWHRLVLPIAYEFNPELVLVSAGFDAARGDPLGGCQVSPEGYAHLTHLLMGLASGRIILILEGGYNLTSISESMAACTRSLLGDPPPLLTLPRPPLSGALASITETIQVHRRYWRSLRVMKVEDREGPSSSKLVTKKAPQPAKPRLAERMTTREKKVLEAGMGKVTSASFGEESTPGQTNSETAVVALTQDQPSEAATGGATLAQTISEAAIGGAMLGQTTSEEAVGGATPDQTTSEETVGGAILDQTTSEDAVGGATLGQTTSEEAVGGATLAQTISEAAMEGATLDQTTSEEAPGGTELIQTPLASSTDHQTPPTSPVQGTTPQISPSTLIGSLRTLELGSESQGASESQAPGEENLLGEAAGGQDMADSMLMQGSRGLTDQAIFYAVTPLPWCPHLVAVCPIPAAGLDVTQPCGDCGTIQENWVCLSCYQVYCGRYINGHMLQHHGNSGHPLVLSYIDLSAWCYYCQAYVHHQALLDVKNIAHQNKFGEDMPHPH
The assay is described as follows: in vitro HDAC assay, release of 3H-acetate from labeled histones by immunoprecipitated FLAG-tagged HDAC6. The note with it: 300 nM TSA, 10 minutes prior to addition of labeled histones. The format is biochemical. Here is the method: as §1, §2, §3

Assay [3] concerns HDAC4. It is filed as cell-based, human. The note with it: TAg Jurkat cells treated 1.5 hours; for HDAC activity of the purified HDAC4 complex: immunoprecipitate. The text has this: (§5) In addition, an increase in the overall HDAC activity of the purified complex was observed (FIG. 9A).
HDAC4 (SEQ ID NO:2) also contains a nuclear localization sequence (Hicks and Raikhel, 1995). In order to determine if the interaction with 14-3-3 blocks binding of the importin heterodimer, recombinant FLAG-tagged HDAC4 (SEQ ID NO:2) was immunoprecipitated from untreated, staurosporine-, and calyculin A-treated TAg-Jurkat cells and analyzed for binding to importin □ by Western blotting.
(§6) Cells were harvested 48 hours post-transfection. When required, cells were treated with 200 µM staurosporin (Calbiochem) or 20 nM calyculin A (Calbiochem) for 1.5 hours prior to harvesting.

In assay [4] the test system is HDAC5. It is filed as cell-based, human. The note with it: TAg Jurkat cells treated 1.5 hours; for HDAC5 association with HDAC3 / binding of HDAC5 to either 14-3-3 isoform: Western blot; for HDAC activity of the purified HDAC5 complex: immunoprecipitate. On the procedure:
as §5, §6
Background: A western blot detects proteins with antibodies after separation by electrophoresis.

Here are results for three compounds from patent US8076116B2, “Nucleic acids encoding class II human histone deacetylases, and uses related thereto” (priority 2000, dated 2011).

Chain of HDAC4 (Homo sapiens, UniProt P56524) (P56524 whole entry A373T): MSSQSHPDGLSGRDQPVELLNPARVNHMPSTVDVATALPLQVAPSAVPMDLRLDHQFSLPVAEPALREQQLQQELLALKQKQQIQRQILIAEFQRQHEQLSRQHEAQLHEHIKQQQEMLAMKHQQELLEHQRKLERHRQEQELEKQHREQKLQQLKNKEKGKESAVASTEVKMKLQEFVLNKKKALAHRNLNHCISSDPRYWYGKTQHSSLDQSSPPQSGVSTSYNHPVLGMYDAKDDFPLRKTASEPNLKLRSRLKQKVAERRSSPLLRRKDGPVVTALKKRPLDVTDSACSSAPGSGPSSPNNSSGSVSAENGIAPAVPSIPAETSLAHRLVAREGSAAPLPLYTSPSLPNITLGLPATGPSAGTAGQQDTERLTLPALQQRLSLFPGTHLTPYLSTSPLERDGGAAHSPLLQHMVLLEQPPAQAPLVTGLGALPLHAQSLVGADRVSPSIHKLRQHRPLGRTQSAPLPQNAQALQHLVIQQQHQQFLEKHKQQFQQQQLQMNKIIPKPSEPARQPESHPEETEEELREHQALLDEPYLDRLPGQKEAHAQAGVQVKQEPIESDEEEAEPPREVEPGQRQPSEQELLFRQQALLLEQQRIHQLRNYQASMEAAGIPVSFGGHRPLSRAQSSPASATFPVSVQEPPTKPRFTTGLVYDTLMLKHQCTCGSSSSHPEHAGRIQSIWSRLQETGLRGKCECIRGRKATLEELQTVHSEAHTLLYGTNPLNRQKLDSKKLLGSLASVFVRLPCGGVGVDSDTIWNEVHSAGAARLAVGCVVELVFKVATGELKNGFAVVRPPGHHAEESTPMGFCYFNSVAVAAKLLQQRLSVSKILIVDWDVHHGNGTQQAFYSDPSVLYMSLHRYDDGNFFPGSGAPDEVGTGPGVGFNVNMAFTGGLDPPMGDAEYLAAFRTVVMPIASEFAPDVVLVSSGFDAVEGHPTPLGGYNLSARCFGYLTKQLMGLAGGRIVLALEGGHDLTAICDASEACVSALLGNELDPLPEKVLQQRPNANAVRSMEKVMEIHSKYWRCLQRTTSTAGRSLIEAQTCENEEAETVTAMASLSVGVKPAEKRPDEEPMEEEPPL
T1 sequence (Q13547 whole entry): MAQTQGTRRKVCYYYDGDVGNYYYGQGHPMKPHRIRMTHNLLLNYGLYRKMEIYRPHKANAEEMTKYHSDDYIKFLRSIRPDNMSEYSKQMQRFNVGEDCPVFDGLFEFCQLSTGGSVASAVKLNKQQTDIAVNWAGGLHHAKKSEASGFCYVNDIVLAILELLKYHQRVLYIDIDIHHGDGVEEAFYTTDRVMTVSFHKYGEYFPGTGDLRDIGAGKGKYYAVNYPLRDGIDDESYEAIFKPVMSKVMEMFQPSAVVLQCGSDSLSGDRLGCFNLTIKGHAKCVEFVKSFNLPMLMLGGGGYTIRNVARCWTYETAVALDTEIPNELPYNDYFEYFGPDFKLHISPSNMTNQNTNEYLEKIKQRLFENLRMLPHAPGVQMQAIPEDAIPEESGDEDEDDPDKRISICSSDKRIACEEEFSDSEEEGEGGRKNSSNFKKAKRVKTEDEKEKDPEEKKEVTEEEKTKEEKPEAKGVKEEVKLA

As to `CC(/C=C/C(=O)NO)=C\[C@@H](C)C(=O)c1ccc(N(C)C)cc1` [TSA, trichostatin A], the “HDAC1 deacetylation activity in the presence of TSA” value at HDAC1 is reported as “greatly reduced”. Besides, at HDAC4 [1], the “HDAC4 deacetylation activity in the presence of TSA” value is “greatly reduced”. Also, at HDAC5 [2], the “HDAC5 deacetylation activity in the presence of TSA” value is recorded as “greatly reduced”. Moreover, on HDAC6, the “HDAC6 deacetylation activity in the presence of TSA” value is “greatly reduced”.
For `COC[C@@H]([C@H](O)[C@H](O)C(=O)NCC[C@H](C)c1nc(/C=C/C[C@@H]2O[C@]3(C[C@@H](O)[C@@H]2C)O[C@H]([C@H](C[C@H](O)[C@H](C)[C@H](O)[C@H](C)/C=C(C)/C(C)=C/C=C/C(C)=C\C#N)OC)[C@H](OP(=O)(O)O)C3(C)C)co1)N(C)C` [calyculin A], in the assay with HDAC4 [3] (Western blot), the “HDAC4 association with HDAC3” value is on record as “loss of interaction”, the “HDAC4 association with importin α” value was “fails to associate” and the “binding of HDAC4 to either 14-3-3 isoform” value is “increase”. Also, the “HDAC activity of the purified HDAC4 complex” value in the assay on HDAC4 [3] is “dramatic reduction”. Further, in the assay on HDAC5 [4], the “HDAC5 association with HDAC3” value is listed as “loss of interaction”, the “binding of HDAC5 to either 14-3-3 isoform” value is given as “increase” and the “HDAC activity of the purified HDAC5 complex” value is listed as “dramatic reduction”.
As for `CN[C@@H]1C[C@H]2O[C@@](C)([C@@H]1OC)n1c3ccccc3c3c4c(c5c6ccccc6n2c5c31)C(=O)NC4` [staurosporine], in the assay on HDAC4 [3] (Western blot), the “HDAC4 association with HDAC3” value is on record as “increase” and the “binding of HDAC4 to either 14-3-3 isoform” value is “decrease”. Moreover, the “HDAC activity of the purified HDAC4 complex” value with HDAC4 [3] was “increase”. Also, in the assay with HDAC5 [4], the “HDAC5 association with HDAC3” value is reported as “increase”, the “binding of HDAC5 to either 14-3-3 isoform” value is “decrease” and the “HDAC activity of the purified HDAC5 complex” value is reported as “increase”.
